This test concerns the target T1, GST-tagged ROR gamma ligand binding domain (LBD) (Homo sapiens, UniProt P51449).
T1 construct: purchased Invitrogen
T1 sequence (P51449 269-508 limits assumed): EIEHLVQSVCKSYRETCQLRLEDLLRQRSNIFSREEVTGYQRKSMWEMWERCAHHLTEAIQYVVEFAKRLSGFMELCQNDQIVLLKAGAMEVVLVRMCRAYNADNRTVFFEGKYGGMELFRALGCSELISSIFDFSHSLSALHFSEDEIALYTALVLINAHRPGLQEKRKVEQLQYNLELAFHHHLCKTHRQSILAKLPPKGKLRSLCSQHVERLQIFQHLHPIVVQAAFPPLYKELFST
In words: TR-FRET assay for ROR gamma (LanthaScreen co-activator peptide recruitment). Type of test: biochemical. Particulars: for IC50: class symbols, from dose response curve; for inhibition at 1 µM: compound 1 μM; for inhibition at 1 µM / inhibition at 10 µM: TR-FRET ratio 520/495, percent of control; for inhibition at 10 µM: compound 10 μM. A digest of the protocol: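 Antagonist mode: 10 nM GST-RORγ LBD pre-incubated with compound 1 h at 22 °C in 25 mM HEPES pH 7.4, 100 mM NaCl, 5 mM DTT, 0.01% BSA, 4% DMSO final. Then 300 nM fluorescein-D22 co-activator peptide plus 10 nM Tb-anti-GST added, 1 h at room temperature. IC50 by nonlinear regression of the 520/495 TR-FRET ratio as percent of no-compound control.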

Structures are written as SMILES.

In general, IC50 refers to the concentration needed to halve the response being measured. One may read the inhibition as the drop in the measured response relative to a control, in per cent. On to `CCn1c(C(C)(C)Oc2ccc(F)cc2F)nc2cc(NC(=O)Cc3ccc(S(=O)(=O)CC)cc3)ccc21` [Example 88, N-{2-[1-(2,4-Difluoro-phenoxy)-1-methyl-ethyl]-1-ethyl-1H-benzoimidazol-5-yl}-2-(4-ethanesulfonyl-phenyl)-acetamide], for which the concentration for half-maximal inhibition (IC50) is below 50 nM, the inhibition at 1 µM worked out at 86.2% and the inhibition at 10 µM came out at 96.1%.

In the case of `CCn1c(C(C)(C)Oc2ccc(F)c(F)c2)nc2cc(NC(=O)Cc3ccc(S(=O)(=O)CC)cc3)ccc21` [Example 89, N-{2-[1-(3,4-Difluoro-phenoxy)-1-methyl-ethyl]-1-ethyl-1H-benzoimidazol-5-yl}-2-(4-ethanesulfonyl-phenyl)-acetamide], the IC50 was below 50 nM, the inhibition at 1 µM was determined as 86.5% and the inhibition at 10 µM was 95.5%.

For the compound `CCn1c(C(C)(C)Oc2c(F)cc(F)cc2F)nc2cc(NC(=O)Cc3ccc(S(=O)(=O)CC)cc3)ccc21` [Example 90, 2-(4-Ethanesulfonyl-phenyl)-N-{1-ethyl-2-[1-methyl-1-(2,4,6-trifluoro-phenoxy)-ethyl]-1H-benzoimidazol-5-yl}-acetamide], the IC50 was below 50 nM, the inhibition at 1 µM was 87.3% and the inhibition at 10 µM is 88.8%.

With `CCn1c(C(C)(C)Oc2ccc(F)c(F)c2F)nc2cc(NC(=O)Cc3ccc(S(=O)(=O)CC)cc3)ccc21` [Example 91, 2-(4-Ethanesulfonyl-phenyl)-N-{1-ethyl-2-[1-methyl-1-(2,3,4-trifluoro-phenoxy)-ethyl]-1H-benzoimidazol-5-yl}-acetamide], the IC50 was below 50 nM, the inhibition at 1 µM stood at 90% and the inhibition at 10 µM stood at 90.6%.

For `CCn1c(C(C)(C)Oc2cc(F)c(F)cc2F)nc2cc(NC(=O)Cc3ccc(S(=O)(=O)CC)cc3)ccc21` [Example 92, 2-(4-Ethanesulfonyl-phenyl)-N-{1-ethyl-2-[1-methyl-1-(2,4,5-trifluoro-phenoxy)-ethyl]-1H-benzoimidazol-5-yl}-acetamide], the IC50 is below 50 nM, the inhibition at 1 µM stood at 91.5% and the inhibition at 10 µM came out at 93.1%.

For `CCn1c(C(C)(C)Oc2ccc(Cl)cc2)nc2cc(NC(=O)Cc3ccc(S(=O)(=O)CC)cc3)ccc21` [Example 93, N-{2-[1-(4-Chloro-phenoxy)-1-methyl-ethyl]-1-ethyl-1H-benzoimidazol-5-yl}-2-(4-ethanesulfonyl-phenyl)-acetamide], the IC50 was below 50 nM, the inhibition at 1 µM was 83.4% and the inhibition at 10 µM is 87.4%.

Regarding `CCn1c(C(C)(C)Oc2ccc(Cl)cn2)nc2cc(NC(=O)Cc3ccc(S(=O)(=O)CC)cc3)ccc21` [Example 94, N-{2-[1-(5-Chloro-pyridin-2-yloxy)-1-methyl-ethyl]-1-ethyl-1H-benzoimidazol-5-yl}-2-(4-ethanesulfonyl-phenyl)-acetamide], the IC50 was above 100 nM, the inhibition at 1 µM stood at 78% and the inhibition at 10 µM is 90.1%.

Turning to `CCS(=O)(=O)c1ccc(CC(=O)Nc2ccc(OC(C)(C)c3ncc(Cl)cc3Cl)c(F)c2)cc1` [Example 95, N-{4-[1-(3,5-Dichloro-pyridin-2-yl)-1-methyl-ethoxy]-3-fluoro-phenyl}-2-(4-ethanesulfonyl-phenyl)-acetamide], the IC50 is below 50 nM, the inhibition at 1 µM came out at 75.7% and the inhibition at 10 µM stood at 77.6%.

Take `CCS(=O)(=O)c1ccc(CC(=O)Nc2ccc(OC(C)(C)c3ccc(Cl)cc3Cl)c(F)c2)cc1` [Example 96, N-{4-[1-(2,4-Dichloro-phenyl)-1-methyl-ethoxy]-3-fluoro-phenyl}-2-(4-ethanesulfonyl-phenyl)-acetamide]: the IC50 is below 50 nM, the inhibition at 1 µM stood at 79.3% and the inhibition at 10 µM is 79.8%.

With `CCS(=O)(=O)c1ccc(CC(=O)Nc2ccc(OC(C)(C)c3ccc(F)cc3Cl)c(F)c2)cc1` [Example 97, N-{4-[1-(2-Chloro-4-fluoro-phenyl)-1-methyl-ethoxy]-3-fluoro-phenyl}-2-(4-ethanesulfonyl-phenyl)-acetamide], the IC50 is below 50 nM, the inhibition at 1 µM was found to be 80.8% and the inhibition at 10 µM is 82.1%.

As for `CCS(=O)(=O)c1ccc(CC(=O)Nc2ccc(OC(C)(C)c3ccc(Cl)cc3F)c(F)c2)cc1` [Example 98, N-{4-[1-(4-Chloro-2-fluoro-phenyl)-1-methyl-ethoxy]-3-fluoro-phenyl}-2-(4-ethanesulfonyl-phenyl)-acetamide], the inhibition at 1 µM came out at 55% and the inhibition at 10 µM amounted to 49.6%.

Turning to `CCS(=O)(=O)c1ccc(CC(=O)Nc2ccc(OC3(c4ccc(Cl)cc4F)CC3)c(F)c2)cc1` [Example 99, N-{4-[1-(4-Chloro-2-fluoro-phenyl)-cyclopropoxy]-3-fluoro-phenyl}-2-(4-ethanesulfonyl-phenyl)-acetamide], the half-maximal inhibitory concentration (IC50) is below 50 nM, the inhibition at 1 µM was determined as 81.7% and the inhibition at 10 µM was found to be 81.1%.

For the compound `CCS(=O)(=O)c1ccc(CC(=O)Nc2ccc(OC3(c4ccc(Cl)c(F)c4)CC3)c(F)c2)cc1` [Example 100, N-{4-[1-(4-Chloro-3-fluoro-phenyl)-cyclopropoxy]-3-fluoro-phenyl}-2-(4-ethanesulfonyl-phenyl)-acetamide], the 50% inhibitory concentration (IC50) is below 50 nM, the inhibition at 1 µM amounted to 79.4% and the inhibition at 10 µM was found to be 87.2%.

For the compound `CCS(=O)(=O)c1ccc(CC(=O)Nc2ccc(OC3(c4ccc(Cl)cc4Cl)COC3)c(F)c2)cc1` [Example 101, N-{4-[3-(2,4-Dichloro-phenyl)-oxetan-3-yloxy]-3-fluoro-phenyl}-2-(4-ethanesulfonyl-phenyl)-acetamide], the IC50 was below 50 nM, the inhibition at 1 µM came to 86.6% and the inhibition at 10 µM came out at 82.3%.

As for `CCS(=O)(=O)c1ccc(CC(=O)Nc2ccc(OC3(c4ccc(Cl)c(F)c4)COC3)c(F)c2)cc1` [Example 102, N-{4-[3-(4-Chloro-3-fluoro-phenyl)-oxetan-3-yloxy]-3-fluoro-phenyl}-2-(4-ethanesulfonyl-phenyl)-acetamide], the IC50 was below 50 nM, the inhibition at 1 µM was found to be 81.7% and the inhibition at 10 µM was found to be 84%.

Regarding `CCS(=O)(=O)c1ccc(CC(=O)Nc2ccc(OC3(c4ccc(Cl)c(F)c4)CCOCC3)c(F)c2)cc1` [Example 103, N-{4-[4-(4-Chloro-3-fluoro-phenyl)-tetrahydro-pyran-4-yloxy]-3-fluoro-phenyl}-2-(4-ethanesulfonyl-phenyl)-acetamide], the IC50 is below 50 nM, the inhibition at 1 µM came to 73.6% and the inhibition at 10 µM came to 80.2%.

As to `CCS(=O)(=O)c1ccc(CC(=O)Nc2ccc(OC(C)(C)Cn3ccc4cc(Cl)ccc43)c(F)c2)cc1` [Example 104, N-{4-[2-(5-Chloro-indol-1-yl)-1,1-dimethyl-ethoxy]-3-fluoro-phenyl}-2-(4-ethanesulfonyl-phenyl)-acetamide], the IC50 was 50 to 100 nM, the inhibition at 1 µM amounted to 74.5% and the inhibition at 10 µM was determined as 79.2%.

On to `CCn1c(C(C)(C)Oc2ccc(NC(=O)Cc3ccc(S(=O)(=O)CC)cc3)cc2F)nc2cc(Cl)ccc21` [Example 105, N-{4-[1-(5-Chloro-1-ethyl-1H-benzoimidazol-2-yl)-1-methyl-ethoxy]-3-fluoro-phenyl}-2-(4-ethanesulfonyl-phenyl)-acetamide], for which the IC50 is below 50 nM, the inhibition at 1 µM was determined as 83.6% and the inhibition at 10 µM is 84.6%.

`CCS(=O)(=O)c1ccc(CC(=O)Nc2ccc(C#CC(C)(C)Oc3ccc(Cl)c(F)c3)c(F)c2)cc1` [Example 106, N-{4-[3-(4-Chloro-3-fluoro-phenoxy)-3-methyl-but-1-ynyl]-3-fluoro-phenyl}-2-(4-ethanesulfonyl-phenyl)-acetamide]: the IC50 was below 50 nM, the inhibition at 1 µM came out at 81.9% and the inhibition at 10 µM was 85.9%.

For `CCS(=O)(=O)c1ccc(CC(=O)Nc2ccc(OC(C)(C)c3ccc(F)cc3F)c(F)c2)cc1` [Example 107, N-{4-[1-(2,4-Difluoro-phenyl)-1-methyl-ethoxy]-3-fluoro-phenyl}-2-(4-ethanesulfonyl-phenyl)-acetamide], the inhibition at 1 µM came to 59% and the inhibition at 10 µM turned out to be 59.5%.

With `CCS(=O)(=O)c1ccc(CC(=O)Nc2ccc(OC(C)(C)Cn3c(C)cc4cc(F)ccc43)c(F)c2)cc1` [Example 108, 2-(4-Ethanesulfonyl-phenyl)-N-{3-fluoro-4-[2-(5-fluoro-2-methyl-indol-1-yl)-1,1-dimethyl-ethoxy]-phenyl}-acetamide], the inhibition at 1 µM came to 9.67% and the inhibition at 10 µM is 61.4%.

On to `CCS(=O)(=O)c1ccc(CC(=O)Nc2cc(F)c(OC(C)(C)c3ccc(Cl)cc3Cl)c(F)c2)cc1` [Example 109, N-{4-[1-(2,4-Dichloro-phenyl)-1-methyl-ethoxy]-3,5-difluoro-phenyl}-2-(4-ethanesulfonyl-phenyl)-acetamide], for which the inhibition at 1 µM was 16.6% and the inhibition at 10 µM is 17.2%.

For the compound `CCS(=O)(=O)c1ccc(CC(=O)Nc2cc(F)c(OC(C)(C)c3ncc(Cl)cc3Cl)c(F)c2)cc1` [Example 110, N-{4-[1-(3,5-Dichloro-pyridin-2-yl)-1-methyl-ethoxy]-3,5-difluoro-phenyl}-2-(4-ethanesulfonyl-phenyl)-acetamide], the inhibition at 1 µM amounted to 23.7% and the inhibition at 10 µM amounted to 47.6%.

(Values after patent publication US9718817B2, “Aryl and heteroaryl ether compounds as ROR gamma modulators” (Glenmark Pharmaceuticals S.A., priority 2014, dated 2017).)
